In the supplement of paper PMC10627819:

Experiments:
Assay in all cases: fitness (endpoint OD595 vs no drug) (fraction); higher = more growth
[1] = tested on: S. aureus Newman
Procedure, shortened: (§1)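 With the first reading as background, OD595 was measured every 30 min for 14 h in 384-well plates kept at 37 °C and inoculated at OD595 0.01. TSB, LB Lennox or CY was the medium. Fitness is the optical density at the transition into stationary phase divided by the robust mean of no-drug control wells, with a cap of 1.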

[2] = tested on: S. pneumoniae D39V
Procedure, shortened: as §1

[3] = tested on: B. subtilis 168
Procedure, shortened: as §1
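Further: OD595 on entry to stationary phase over no-drug wells; at most 1.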

O=C(O)[C@H]1/C(=C/CO)O[C@@H]2CC(=O)N21 [Clavulanic acid] + Cn1nnc(-c2ccc(-c3ccc(N4C[C@H](CO)OC4=O)cc3F)cn2)n1 [Tedizolid]
fitness, [1], one replicate
Details	first compound 0.03125 µg/mL	first compound 0.0625 µg/mL	first compound 0.125 µg/mL
partner 0.0625 µg/mL	0.827	0.837	0.868
partner 0.125 µg/mL	0.498	0.509	0.523
partner 0.25 µg/mL	0.0634	0.0552	0.0639

fitness, [2]
Details	partner 0.03125 µg/mL	partner 0.0625 µg/mL	partner 0.125 µg/mL	partner 0.25 µg/mL	partner 0.5 µg/mL
first compound 0.5 µg/mL	0.953	0.943	0.693	0.261	0.0809
first compound 1 µg/mL	0.887	0.938	0.673	0.371	0.227
first compound 2 µg/mL	0.855	0.901	0.581	0.262	0.0776

O=C(O)[C@H]1/C(=C/CO)O[C@@H]2CC(=O)N21 [Clavulanic acid] + N[C@@H]1CONC1=O [Cycloserine D]
fitness, [3]
Details	first compound 1.5 µg/mL	first compound 3 µg/mL	first compound 6 µg/mL
partner 0.125 µg/mL	0.903	0.909	0.792
partner 0.25 µg/mL	0.957	0.861	0.801
partner 0.5 µg/mL	0.946	0.915	0.832

fitness, [1], one replicate
Details	first compound 0.03125 µg/mL	first compound 0.0625 µg/mL	first compound 0.125 µg/mL
partner 0.375 µg/mL	0.902	0.954	0.885
partner 0.75 µg/mL	0.884	0.942	0.888
partner 1.5 µg/mL	0.899	0.858	0.897

CNC(C)C1CCC(N)C(OC2C(N)CC(N)C(OC3OCC(C)(O)C(NC)C3O)C2O)O1 (stereo not drawn) [Gentamicin] + CO[C@@]12[C@H](COC(N)=O)C3=C(C(=O)C(C)=C(N)C3=O)N1C[C@@H]1N[C@@H]12 [Mitomycin C]
fitness, [1], one replicate, main component drawn
Details	first compound 0.375 µg/mL	first compound 0.75 µg/mL	first compound 1.5 µg/mL
partner 0.0156 µg/mL	0.755	0.779	0.774
partner 0.0312 µg/mL	0.762	0.725	0.707
partner 0.0625 µg/mL	0.602	0.603	0.607

fitness, main component drawn
Details	partner 0.001075 µg/mL	partner 0.002 µg/mL	partner 0.00215 µg/mL	partner 0.004 µg/mL	partner 0.0043 µg/mL	partner 0.008 µg/mL	partner 0.0156 µg/mL	partner 0.0312 µg/mL	partner 0.0625 µg/mL
[1], first compound 0.5 µg/mL	–	–	–	–	–	–	0.762	0.667	0.558
[1], first compound 1 µg/mL	–	–	–	–	–	–	0.797	0.698	0.601
[1], first compound 2 µg/mL	–	–	–	–	–	–	0.808	0.732	0.585
[2], first compound 2 µg/mL	0.975	0.787	0.969	0.685	0.844	0.395	–	–	–
[2], first compound 4 µg/mL	0.94	0.729	0.915	0.602	0.807	0.369	–	–	–
[2], first compound 8 µg/mL	0.946	0.715	0.929	0.608	0.827	0.346	–	–	–
